Experiments:
Type in all cases: in vivo
[1] = system: Alopecurus myosuroides (ALOMY); assay: Herbicidal pre-emergence action (C), 320 g/ha; conditions: ca. 3 weeks
Summary of the method: (§1)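 Pre-emergence greenhouse test: visual damage rating at about 3 weeks relative to untreated plants, 100% meaning death and 0% no effect. Compounds, as wettable powders or emulsifiable concentrates with 0.5% additive, were applied at 320 g/ha (600 l water/ha) onto soil covering seeds sown in sandy loam.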

[2] = system: Amaranthus retroflexus (AMARE); assay: Herbicidal pre-emergence action (C), 320 g/ha; conditions: ca. 3 weeks
Summary of the method: as §1

[3] = system: Echinochloa crus-galli (ECHCG); assay: Herbicidal pre-emergence action (C), 320 g/ha; conditions: ca. 3 weeks
Summary of the method: as §1

Lolium rigidum (LOLRI) [4] = assay: Herbicidal pre-emergence action (C), 320 g/ha; conditions: ca. 3 weeks
Summary of the method: as §1

[5] = system: Matricaria inodora (MATIN); assay: Herbicidal pre-emergence action (C), 320 g/ha; conditions: ca. 3 weeks
Summary of the method: as §1

Setaria viridis (SETVI) [6] = assay: Herbicidal pre-emergence action (C), 320 g/ha; conditions: ca. 3 weeks
Summary of the method: as §1

Veronica persica (VERPE) [7] = assay: Herbicidal pre-emergence action (C), 320 g/ha; conditions: ca. 3 weeks
Summary of the method: as §1

Avena fatua = assay: Herbicidal pre-emergence action (C), 320 g/ha; conditions: ca. 3 weeks
Text: Seeds of mono- and dicotyledonous weed plants and crop plants were sown, in plastic or organic planting pots, in sandy loam and covered with soil. The compounds according to the invention, formulated in the form of wettable powders (WP) or as emulsifiable concentrates (EC), were applied to the surface of the covering soil as aqueous suspension or emulsion, with the addition of 0.5% of an additive, at an application rate of 600 l of water/ha (converted).
Following treatment, the pots were placed in a greenhouse and kept under optimum growth conditions for the test plants. The visual grading of the damage to the test plants was carried out after ca. 3 weeks in comparison to untreated controls (herbicidal effect in percent (%): 100% effect=plants have died off, 0% effect=as control plants).
Tables C1 to C13 below show the effects of selected compounds of the general formula (I) according to table 1 on various harmful plants and an application rate corresponding to 320 g/ha obtained by the experimental procedure mentioned above.

[8] = system: Abutilon theophrasti (ABUTH); assay: Herbicidal post-emergence action (D), 320 g/ha; conditions: ca. 3 weeks
Summary of the method: (§2)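 Seedlings reaching the single-leaf stage 2 to 3 weeks after sowing in sandy loam received a foliar spray of the formulated compound (WP or EC, 0.5% additive, 600 l water/ha). Damage is rated visually after about 3 weeks in the greenhouse as percent effect relative to untreated plants.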

[9] = system: Alopecurus myosuroides (ALOMY); assay: Herbicidal post-emergence action (D), 320 g/ha; conditions: ca. 3 weeks
Summary of the method: as §2

[10] = system: Echinochloa crus-galli (ECHCG); assay: Herbicidal post-emergence action (D), 320 g/ha; conditions: ca. 3 weeks
Summary of the method: as §2

[11] = system: Polygonum convolvulus (POLCO); assay: Herbicidal post-emergence action (D), 320 g/ha; conditions: ca. 3 weeks
Summary of the method: as §2

Setaria viridis (SETVI) [12] = assay: Herbicidal post-emergence action (D), 320 g/ha; conditions: ca. 3 weeks
Summary of the method: as §2

Veronica persica (VERPE) [13] = assay: Herbicidal post-emergence action (D), 320 g/ha; conditions: ca. 3 weeks
Summary of the method: as §2

Viola tricolor (VIOTR) [14] = assay: Herbicidal post-emergence action (D), 320 g/ha; conditions: ca. 3 weeks
Summary of the method: as §2

[15] = system: Alopecurus myosuroides (ALOMY); assay: Herbicidal pre-emergence action (A), 1280 g/ha; conditions: visual grading after ca. 3 weeks vs untreated controls, 100% = plants have died off, 0% = as control plants
Summary of the method: (§3)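 Visual grading of plant damage in percent (0% as untreated control, 100% dead) was done about 3 weeks after treatment. Compounds, as WP or EC in water with 0.5% additive, had been sprayed at 600 l/ha onto the covering soil of freshly sown sandy loam pots.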

[16] = system: Amaranthus retroflexus (AMARE); assay: Herbicidal pre-emergence action (A), 1280 g/ha; conditions: visual grading after ca. 3 weeks vs untreated controls
Summary of the method: as §3

[17] = system: Echinochloa crus-galli (ECHCG); assay: Herbicidal pre-emergence action (A), 1280 g/ha; conditions: visual grading after ca. 3 weeks vs untreated controls, 100% = plants have died off, 0% = as control plants
Summary of the method: as §3

[18] = system: Kochia scoparia (KCHSC; Bassia scoparia); assay: Herbicidal pre-emergence action (A), 1280 g/ha; conditions: visual grading after ca. 3 weeks vs untreated controls
Summary of the method: as §3

Lolium rigidum (LOLRI) [19] = assay: Herbicidal pre-emergence action (A), 1280 g/ha; conditions: visual grading after ca. 3 weeks vs untreated controls, 100% = plants have died off, 0% = as control plants
Summary of the method: as §3

[20] = system: Matricaria inodora (MATIN); assay: Herbicidal pre-emergence action (A), 1280 g/ha; conditions: visual grading after ca. 3 weeks vs untreated controls
Summary of the method: as §3

Poa annua (POAAN) [21] = assay: Herbicidal pre-emergence action (A), 1280 g/ha; conditions: visual grading after ca. 3 weeks vs untreated controls, 100% = plants have died off, 0% = as control plants
Summary of the method: as §3

Setaria viridis (SETVI) [22] = assay: Herbicidal pre-emergence action (A), 1280 g/ha; conditions: visual grading after ca. 3 weeks vs untreated controls
Summary of the method: as §3

Stellaria media (STEME) [23] = assay: Herbicidal pre-emergence action (A), 1280 g/ha; conditions: visual grading after ca. 3 weeks vs untreated controls
Summary of the method: as §3

Veronica persica (VERPE) [24] = assay: Herbicidal pre-emergence action (A), 1280 g/ha; conditions: visual grading after ca. 3 weeks vs untreated controls
Summary of the method: as §3

[25] = system: Amaranthus retroflexus (AMARE); assay: Herbicidal post-emergence action (B), 1280 g/ha; conditions: rated visually after about 3 weeks vs untreated controls
Summary of the method: (§4)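 Greenhouse-grown weeds at the one-leaf stage received a foliar spray of the formulated compound (WP or EC, 0.5% additive, 600 L/ha). Damage was scored visually after about 3 weeks on a 0–100% scale against untreated plants.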

[26] = system: Echinochloa crus-galli (ECHCG); assay: Herbicidal post-emergence action (B), 1280 g/ha; conditions: rated visually after about 3 weeks vs untreated controls
Summary of the method: as §4

[27] = system: Kochia scoparia (KCHSC; Bassia scoparia); assay: Herbicidal post-emergence action (B), 1280 g/ha
Summary of the method: as §4

Poa annua (POAAN) [28] = assay: Herbicidal post-emergence action (B), 1280 g/ha; conditions: rated visually after about 3 weeks vs untreated controls
Summary of the method: as §4

Stellaria media (STEME) [29] = assay: Herbicidal post-emergence action (B), 1280 g/ha
Summary of the method: as §4

Veronica persica (VERPE) [30] = assay: Herbicidal post-emergence action (B), 1280 g/ha
Summary of the method: as §4

Viola tricolor (VIOTR) [31] = assay: Herbicidal pre-emergence action (C), 320 g/ha; conditions: ca. 3 weeks
Summary of the method: as §1

[32] = system: Amaranthus retroflexus (AMARE); assay: Herbicidal post-emergence action (D), 320 g/ha; conditions: ca. 3 weeks
Summary of the method: as §2

Setaria viridis (SETVI) [33] = assay: Herbicidal post-emergence action (B), 1280 g/ha; conditions: rated visually after about 3 weeks vs untreated controls
Summary of the method: as §4

[34] = system: Abutilon theophrasti (ABUTH); assay: Herbicidal pre-emergence action (C), 320 g/ha; conditions: ca. 3 weeks
Summary of the method: as §1

| Structure (SMILES) | herbicidal effect ALOMY [1] [%] | herbicidal effect AMARE [2] [%] | herbicidal effect ECHCG [3] [%] | herbicidal effect LOLRI (Lolium rigidum (LOLRI) [4]) [%] | herbicidal effect MATIN [5] [%] | herbicidal effect SETVI (Setaria viridis (SETVI) [6]) [%] | herbicidal effect VERPE (Veronica persica (VERPE) [7]) [%] | herbicidal effect ABUTH [8] [%] | herbicidal effect ALOMY [9] [%] | herbicidal effect ECHCG [10] [%] | herbicidal effect POLCO [11] [%] | herbicidal effect SETVI (Setaria viridis (SETVI) [12]) [%] | herbicidal effect VERPE (Veronica persica (VERPE) [13]) [%] | ALOMY, herbicidal effect in percent (%) [15] [%] | herbicidal effect AMARE [16] [%] | ECHCG, herbicidal effect in percent (%) [17] [%] | herbicidal effect KCHSC [18] [%] | LOLRI, herbicidal effect in percent (%) (Lolium rigidum (LOLRI) [19]) | herbicidal effect MATIN [20] [%] | POAAN, herbicidal effect in percent (%) (Poa annua (POAAN) [21]) | also measured |
| --- | --- | --- | --- | --- | --- | --- | --- | --- | --- | --- | --- | --- | --- | --- | --- | --- | --- | --- | --- | --- | --- |
| Fc1ccc(-c2nc3ncsc3cc2Cl)c(F)c1 [Example I-127] | 90 | 80 | 100 | 80 | 80 | 100 | 90 | 80 | 90 | 90 | 90 | 90 | 80 | – | – | – | – | – | – | – | herbicidal effect AVEFA (Avena fatua): 90%; herbicidal effect VIOTR (Viola tricolor (VIOTR) [14]): 80% |
| CC(C)c1cc2scnc2nc1-c1ccccc1F [Example I-184] | 100 | 90 | 100 | 100 | 80 | 100 | 80 | – | 90 | 80 | 80 | 90 | 90 | 90 | 90 | 100 | 90 | 100 | 90 | 100 | herbicidal effect SETVI (Setaria viridis (SETVI) [22]): 100%; herbicidal effect STEME (Stellaria media (STEME) [23]): 90%; herbicidal effect VERPE (Veronica persica (VERPE) [24]): 90%; herbicidal activity AMARE [25]: 100%; herbicidal activity ECHCG [26]: 90%; herbicidal effect KCHSC [27]: 90%; herbicidal activity POAAN (Poa annua (POAAN) [28]): 90%; herbicidal effect STEME (Stellaria media (STEME) [29]): 90%; herbicidal effect VERPE (Veronica persica (VERPE) [30]): 90%; herbicidal effect VIOTR (Viola tricolor (VIOTR) [31]): 80%; herbicidal effect AMARE [32]: 80% |
| Clc1cc2scnc2nc1-c1sccc1Cl [Example I-189] | 100 | 80 | 100 | – | – | 100 | 80 | 80 | 90 | 90 | 80 | 90 | 80 | 90 | 90 | 100 | 90 | 90 | 90 | 100 | herbicidal effect SETVI (Setaria viridis (SETVI) [22]): 100%; herbicidal effect STEME (Stellaria media (STEME) [23]): 90%; herbicidal effect VERPE (Veronica persica (VERPE) [24]): 90%; herbicidal activity AMARE [25]: 90%; herbicidal activity ECHCG [26]: 100%; herbicidal effect KCHSC [27]: 90%; herbicidal activity POAAN (Poa annua (POAAN) [28]): 90%; herbicidal activity SETVI (Setaria viridis (SETVI) [33]): 90%; herbicidal effect STEME (Stellaria media (STEME) [29]): 90%; herbicidal effect VERPE (Veronica persica (VERPE) [30]): 90%; herbicidal effect ABUTH [34]: 80% |
